Test results taken from US20260200928A1, “THERAPEUTIC COMPOUNDS” (Sanofi, priority 2022, published 2026).

Target: T1, human IL-17A (Homo sapiens, UniProt Q16552)
T1 construct: purchased R&D Systems 7955-IL/CF
T1 sequence (Q16552 24-155): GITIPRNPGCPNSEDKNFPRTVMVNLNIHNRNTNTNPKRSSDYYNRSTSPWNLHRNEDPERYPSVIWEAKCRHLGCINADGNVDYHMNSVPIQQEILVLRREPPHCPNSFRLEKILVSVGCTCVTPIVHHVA
Experiment: IL-17A AlphaLISA competition assay (block of IL-17A binding to its receptor IL-17RA)
Conditions: mean IC50 (n≥2), block of IL-17A binding to IL-17RA
In short: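 Bead-based AlphaLISA competition in PBS with 0.05% Tween-20 and 0.1% BSA: compound first meets human IL-17A (7.5 nM stock) for 30 min, then IL-17RA/Fc (5 nM stock) for 90 min, all at room temperature, before acceptor/donor bead capture. IC50 fitted 4-parameter, DMSO and 4 μM reference inhibitor as controls; at least duplicate.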

IC50 [nM] | Compound
53 | [2H]C(c1ccnc(NC(=O)[C@@H](NC(=O)c2ccnn2C)[C@H]2CC[C@H](C)CC2)c1)N1C[C@@H](C(F)(F)F)NC1=O (stereo partly drawn) [Example 232, 1-Methyl-N-((1S)-1-((1r,4S)-4-methylcyclohexyl)-2-oxo-2-((4-(((S)-2-oxo-4-(trifluoromethyl)imidazolidin-1-VI)methyl-d)pyridin-2-yl)amino)ethyl)-1H-pyrazole-5-carboxamide]
66 | C[C@H]1CC[C@H]([C@@H](NC(=O)c2nonc2C2CC2)C(=O)Nc2cc(C(NC(=O)CCC(F)(F)F)C3CC3)ccn2)CC1 (stereo partly drawn) [Example 235, 4-Cyclopropyl-N-((1S)-2-((4-(cyclopropyl(4,4,4-trifluorobutanamido)-methyl)pyridin-2-yl)amino)-1-((1r,4S)-4-methylcyclohexyl)-2-oxoethyl)-1,2,5-oxadiazole-3-carboxamide]
26 | Cn1nccc1C(=O)N[C@H](C(=O)Nc1cc(C(NC(=O)CCC(F)(F)F)C2CC2)ccn1)[C@H]1CC[C@H](C)CC1 (stereo partly drawn) [Example 236, N-((1S)-2-((4-(cyclopropyl(4,4,4-trifluorobutanamido)methyl)pyridin-2-yl)amino)-1-((1r,4S)-4-methylcyclohexyl)-2-oxoethyl)-1-methyl-1H-pyrazole-5-carboxamide]
22 | Cc1nonc1C(=O)N[C@H](C(=O)Nc1cc([C@@H](C)N2C[C@@H](C(F)(F)F)NC2=O)ccn1)[C@H]1CC[C@H](C)CC1 [Example 237, 4-methyl-N—((S)-1-((1r,4S)-4-methylcyclohexyl)-2-oxo-2-((4-((R)-1-((S)-2-oxo-4-(trifluoromethyl)imidazolidin-1-yl)ethyl)pyridin-2-yl)amino)ethyl)-1,2,5-oxadiazole-3-carboxamide]
14 | CC1CCC(C(NC(=O)c2nonc2C2CC2)C(=O)Nc2cc(C(C)N3CC(C(F)(F)F)NC3=O)ccn2)CC1 [Example 238, 4-cyclopropyl-N-((S)-1-((1r,4S)-4-methylcyclohexyl)-2-oxo-2-((4-((R)-1-((S)-2-oxo-4-(trifluoromethyl)imidazolidin-1-yl)ethyl)pyridin-2-yl)amino)ethyl)-1,2,5-oxadiazole-3-carboxamide]
16 | CCn1nccc1C(=O)N[C@H](C(=O)Nc1cc([C@@H](C)N2C[C@@H](C(F)(F)F)NC2=O)ccn1)[C@H]1CC[C@H](C)CC1 [Example 239, 1-ethyl-N-((S)-1-((1r,4S)-4-methylcyclohexyl)-2-oxo-2-((4-((R)-1-((S)-2-oxo-4-(trifluoromethyl)imidazolidin-1-yl)ethyl)pyridin-2-yl)amino)ethyl)-1H-pyrazole-5-carboxamide]
16 | CC1CCC(C(NC(=O)c2ccnn2C)C(=O)Nc2cc(C(C)N3CC(C(F)(F)F)NC3=O)ccn2)CC1 [Example 240, 1-methyl-N-((S)-1-((1r,4S)-4-methylcyclohexyl)-2-oxo-2-((4-((R)-1-((S)-2-oxo-4-(trifluoromethyl)imidazolidin-1-yl)ethyl)pyridin-2-yl)amino)ethyl)-1H-pyrazole-5-carboxamide]
29 | CC1CCC(C(NC(=O)c2ccnn2C(C)C)C(=O)Nc2cc(C(C)N3CC(C(F)(F)F)NC3=O)ccn2)CC1 [Example 241, 1-isopropyl-N-((S)-1-((1r,4S)-4-methylcyclohexyl)-2-oxo-2-((4-((R)-1-((S)-2-oxo-4-(trifluoromethyl)imidazolidin-1-yl)ethyl)pyridin-2-yl)amino)ethyl)-1H-pyrazole-5-carboxamide]
85 | COCC(NC(=O)CCC(F)(F)F)c1ccnc(NC(=O)C(NC(=O)c2nonc2C)C2CCC(C)CC2)c1 [Example 242, N-((1S)-2-((4-(2-methoxy-1-(4,4,4-trifluorobutanamido)ethyl)pyridin-2-yl)amino)-1-((1r,4S)-4-methylcyclohexyl)-2-oxoethyl)-4-methyl-1,2,5-oxadiazole-3-carboxamide]
38 | COCC(NC(=O)CCC(F)(F)F)c1ccnc(NC(=O)C(NC(=O)c2nonc2C2CC2)C2CCC(C)CC2)c1 [Example 243, 4-cyclopropyl-N-((1S)-2-((4-(2-methoxy-1-(4,4,4-trifluorobutanamido)ethyl)pyridin-2-yl)amino)-1-((1r,4S)-4-methylcyclohexyl)-2-oxoethyl)-1,2,5-oxadiazole-3-carboxamide]
47 | CCn1nccc1C(=O)NC(C(=O)Nc1cc(C(COC)NC(=O)CCC(F)(F)F)ccn1)C1CCC(C)CC1 [Example 244, 1-ethyl-N-((1S)-2-((4-(2-methoxy-1-(4,4,4-trifluorobutanamido)ethyl)pyridin-2-yl)amino)-1-((1r,4S)-4-methylcyclohexyl)-2-oxoethyl)-1H-pyrazole-5-carboxamide]
73 | COCC(NC(=O)CCC(F)(F)F)c1ccnc(NC(=O)C(NC(=O)c2ccnn2C)C2CCC(C)CC2)c1 [Example 245, N-((1S)-2-((4-(2-methoxy-1-(4,4,4-trifluorobutanamido)ethyl)pyridin-2-yl)amino)-1-((1r,4S)-4-methylcyclohexyl)-2-oxoethyl)-1-methyl-1H-pyrazole-5-carboxamide]
72 | COCC(NC(=O)CCC(F)(F)F)c1ccnc(NC(=O)C(NC(=O)c2ccnn2C(C)C)C2CCC(C)CC2)c1 [Example 246, 1-isopropyl-N-((1S)-2-((4-(2-methoxy-1-(4,4,4-trifluorobutanamido)ethyl)pyridin-2-yl)amino)-1-((1r,4S)-4-methylcyclohexyl)-2-oxoethyl)-1H-pyrazole-5-carboxamide]
77 | COCC(c1ccnc(NC(=O)C(NC(=O)C(F)c2ccccc2)C2CCC(C)CC2)c1)N1CC(C(F)(F)F)NC1=O [Example 254, 2-fluoro-N-((S)-2-((4-((S)-2-methoxy-1-((S)-2-oxo-4-(trifluoromethyl)-imidazolidin-1-yl)ethyl)pyridin-2-yl)amino)-1-((1r,4S)-4-methylcyclohexyl)-2-oxoethyl)-2-phenylacetamide]
34 | CC[C@H](c1ccnc(NC(=O)[C@@H](NC(=O)c2nonc2C)[C@H]2CC[C@H](C)CC2)c1)N1C[C@@H](C(F)(F)F)NC1=O [Example 256, 4-methyl-N—((S)-1-((1r,4S)-4-methylcyclohexyl)-2-oxo-2-((4-((R)-1-((S)-2-oxo-4-(trifluoromethyl)imidazolidin-1-yl)propyl)pyridin-2-yl)amino)ethyl)-1,2,5-oxadiazole-3-carboxamide]
32 | CCC(c1ccnc(NC(=O)C(NC(=O)c2nonc2C2CC2)C2CCC(C)CC2)c1)N1CC(C(F)(F)F)NC1=O [Example 257, 4-cyclopropyl-N-((S)-1-((1r,4S)-4-methylcyclohexyl)-2-oxo-2-((4-((R)-1-((S)-2-oxo-4-(trifluoromethyl)imidazolidin-1-yl)propyl)pyridin-2-yl)amino)ethyl)-1,2,5-oxadiazole-3-carboxamide]
9 | CCC(c1ccnc(NC(=O)C(NC(=O)c2ccnn2CC)C2CCC(C)CC2)c1)N1CC(C(F)(F)F)NC1=O [Example 258, 1-ethyl-N-((S)-1-((1r,4S)-4-methylcyclohexyl)-2-oxo-2-((4-((R)-1-((S)-2-oxo-4-(trifluoromethyl)imidazolidin-1-yl)propyl)pyridin-2-yl)amino)ethyl)-1H-pyrazole-5-carboxamide]
6 | CCC(c1ccnc(NC(=O)C(NC(=O)c2ccnn2C)C2CCC(C)CC2)c1)N1CC(C(F)(F)F)NC1=O [Example 259, 1-methyl-N-((S)-1-((1r,4S)-4-methylcyclohexyl)-2-oxo-2-((4-((R)-1-((S)-2-oxo-4-(trifluoromethyl)imidazolidin-1-yl)propyl)pyridin-2-yl)amino)ethyl)-1H-pyrazole-5-carboxamide]
13 | CCC(c1ccnc(NC(=O)C(NC(=O)c2ccnn2C(C)C)C2CCC(C)CC2)c1)N1CC(C(F)(F)F)NC1=O [Example 260, 1-isopropyl-N-((S)-1-((1r,4S)-4-methylcyclohexyl)-2-oxo-2-((4-((R)-1-((S)-2-oxo-4-(trifluoromethyl)imidazolidin-1-yl)propyl)pyridin-2-yl)amino)ethyl)-1H-pyrazole-5-carboxamide]
189 | CCc1conc1C(=O)N[C@H](C(=O)Nc1cc([C@@H](COC)N2C[C@@H](C(F)(F)F)NC2=O)ccn1)C1CC(F)(F)C1 [Example 261, N—((S)-1-(3,3-difluorocyclobutyl)-2-((4-((S)-2-methoxy-1-((S)-2-oxo-4-(trifluoromethyl)imidazolidin-1-yl)ethyl)pyridin-2-yl)amino)-2-oxoethyl)-4-ethylisoxazole-3-carboxamide]
198 | COC[C@H](c1ccnc(NC(=O)[C@@H](NC(=O)c2ccnn2C(C)C)C2CC(F)(F)C2)c1)N1C[C@@H](C(F)(F)F)NC1=O [Example 262, N—((S)-1-(3,3-difluorocyclobutyl)-2-((4-((S)-2-methoxy-1-((S)-2-oxo-4-(trifluoromethyl)imidazolidin-1-yl)ethyl)pyridin-2-yl)amino)-2-oxoethyl)-1-isopropyl-1H-pyrazole-5-carboxamide]
90 | C[C@H]1CC[C@@H]([C@H](NC(=O)c2nonc2C2CC2)C(=O)Nc2cc(CN3C[C@@H](C(F)(F)F)NC3=O)ccn2)CC1 [Example 263, 4-Cyclopropyl-N—((S)-1-((1s,4R)-4-methylcyclohexyl)-2-oxo-2-((4-(((S)-2-oxo-4-(trifluoromethyl)imidazolidin-1-yl)methyl)pyridin-2-yl)amino)ethyl)-1,2,5-oxadiazole-3-carboxamide]
99 | Cn1nccc1C(=O)N[C@H](C(=O)Nc1cc(CN2C[C@@H](C(F)(F)F)NC2=O)ccn1)[C@H]1CC[C@@H](C)CC1 [Example 264, 1-Methyl-N—((S)-1-((1s,4R)-4-methylcyclohexyl)-2-oxo-2-((4-(((S)-2-oxo-4-(trifluoromethyl)imidazolidin-1-yl)methyl)pyridin-2-yl)amino)ethyl)-1H-pyrazole-5-carboxamide]
